# Data as given in patent publication US9260439B2, “Dihydropyrrolopyrimidine derivatives” (PFIZER INC., priority 2014, dated 2016).
# Where a name gives a salt, the structure may show the parent alone.
# Target: truncated PI3Kα (p110α/iSH2 p85α) (Homo sapiens (Human), UniProt P42336)
# Test: PI3KA_Act fluorescence polarization kinase assay (Ki)
# Assay type: biochemical
# Settings: 1 mM ATP
# Text: 2) p110α-iSH2 p85α Complex (Full Length p110α and p85α iSH2)(“PI3KA_Act”)
# Genes encoding for full length p110α and p85α nSH-iSH2=niSH2 (p85a aminoacids 322-600) subunits of PI3Kα complex were subcloned from existing constructs into pFASTBAC Dual vector (Life Technologies, Carlsbad, Calif.) using standard cloning procedures. Gene encoding p110α subunit was subcloned into polyhedrine promoter while gene encoding p85α niSH2 domains was subcloned into p10 promoter. Additionally, Human Rhinovirus 3C Protease (“HRV 3C”) site was introduced between nSH2 and iSH2, replacing aminoacids 431-438 of p85α with […] HRV 3C recognition sequence, using standard QuickChange mutagenesis protocol (Agilent Technologies, CA). Recombinant baculovirus was generated using Bac-to-Bac protocol (Life Technologies, Carlsbad, Calif.). Large scale expression was conducted in Sf21 (Life Technologies, Carlsbad, Calif.) cells at a multiplicity of infection (“MOI”)=1 for 48 hours. Cells were lyzed in 50 mM Tris pH 8.0, 250 mM NaCl, 5% glycerol, 0.25 mM TCEP, and 20 mM imidazole. The p110α-niSH2 p85α complex was purified from clarified supernatant using Immobilized Metalo Affinity Chromatography (“IMAC”). The protein was eluted from the column using 50 mM Tris pH 8.0, 200 mM NaCl, 0.25 mM TCEP, and 200 mM imidazole. Following elution p110α-niSH2 p85α complex was dialyzed against 4 liters of 50 mM Tris pH 8.0, 200 mM NaCl, 0.25 mM TCEP, and 40 mM imidazole in the presence of PreScission Protease (1:70 molar ratio of Protease to Protein) and TEV protease (1:40 molar ratio protease to protein) for 16 hours at 4° C. The protein was further purified using reverse IMAC to remove cleaved histidine tag and contaminants captured during initial IMAC purification. The mixture of p110α-iSH2 p85α complex and cleaved nSH2 was recovered in reverse IMAC 40 mM imidazole flow through and 60 mM imidazole wash fractions. Those fractions were pulled together and loaded on Superdex 200 26/60 SEC column equilibrated in 25 mM Tris, pH 8.0, 100 mM NaCl, 2% glycerol, and 2 mM TCEP. Following SEC, chromatography peak fractions containing p110α-iSH2 p85α complex were pulled and concentrated to 4.3 mg/mL. Purity and integrity of the complex was confirmed using LCMS, analytical SEC and SDS-PAGE (sodium dodecyl sulfate polyacrylamide gel electrophoresis) analysis.
# The biochemical assays of kinase activity of full-length PI3Kα (full-length p110α/p85a) or truncated PI3Kα (p110α/iSH2 p85a) were conducted using a fluorescence polarization format similar to the procedure of Yuan J., et al., (2011) “PF-04691502, a Potent and Selective Oral Inhibitor of PI3K and mTOR Kinases with Antitumor Activity”, Mol Cancer Ther. 10, 2189-2199. The enzymatic reactions were conducted in 50 μL volumes in 96-well plates. The reactions contained human recombinant PI3Kα (2 nM full-length p110α/p85α or 0.5 nM p110α/iSH2 p85) and 30 μM phosphatidylinositol 4,5-bisphosphate (“PIP2”) (Cayman Chemical Company, Ann Arbor, Mich.) and were sonicated for 1 minute prior to adding PI3Kα enzyme (PI3KA_Act or PI3KA_FL), DMSO or test compound (12-point 3-fold serial dilution, 3 μM top dose, 2° A) DMSO final concentration), 5 mM MgCl2, 50 mM HEPES pH 7.4, 150 mM NaCl, 1 mM DTT ((2S,3S)-1,4-bis(sulfanyl)butane-2,3-diol), and 0.05% 3-[(3-cholamidopropyl)dimethylammonio]-1-propanesulfonate (“CHAPS”). […] The reactions were incubated for 30 min at room temperature, stopped with EDTA pH 8 (10 mM final concentration). In a detection plate, 15 μL of detector/probe mixture, containing 480 nM GST-Grp1 PH domain protein (University of Dundee, Dundee, UK) and 12 nM carboxytetramethylrhodamine (“TAMRA”)-tagged fluorescent phosphatidylinositol (3,4,5)-triphosphate (“PIP3”) (Echelon Biosciences, Inc., Salt Lake City, Utah) in assay buffer, was mixed with 15 μL of kinase reaction mixture. The plate was shaken for 30 minutes and fluorescence polarization values were measured on an LJL Analyst HT plate reader (Molecular Devices, Sunnyvale, Calif.). […]
# truncated PI3Kα (p110α/iSH2 p85α), sequence (P42336 whole entry, the tested form may be a part): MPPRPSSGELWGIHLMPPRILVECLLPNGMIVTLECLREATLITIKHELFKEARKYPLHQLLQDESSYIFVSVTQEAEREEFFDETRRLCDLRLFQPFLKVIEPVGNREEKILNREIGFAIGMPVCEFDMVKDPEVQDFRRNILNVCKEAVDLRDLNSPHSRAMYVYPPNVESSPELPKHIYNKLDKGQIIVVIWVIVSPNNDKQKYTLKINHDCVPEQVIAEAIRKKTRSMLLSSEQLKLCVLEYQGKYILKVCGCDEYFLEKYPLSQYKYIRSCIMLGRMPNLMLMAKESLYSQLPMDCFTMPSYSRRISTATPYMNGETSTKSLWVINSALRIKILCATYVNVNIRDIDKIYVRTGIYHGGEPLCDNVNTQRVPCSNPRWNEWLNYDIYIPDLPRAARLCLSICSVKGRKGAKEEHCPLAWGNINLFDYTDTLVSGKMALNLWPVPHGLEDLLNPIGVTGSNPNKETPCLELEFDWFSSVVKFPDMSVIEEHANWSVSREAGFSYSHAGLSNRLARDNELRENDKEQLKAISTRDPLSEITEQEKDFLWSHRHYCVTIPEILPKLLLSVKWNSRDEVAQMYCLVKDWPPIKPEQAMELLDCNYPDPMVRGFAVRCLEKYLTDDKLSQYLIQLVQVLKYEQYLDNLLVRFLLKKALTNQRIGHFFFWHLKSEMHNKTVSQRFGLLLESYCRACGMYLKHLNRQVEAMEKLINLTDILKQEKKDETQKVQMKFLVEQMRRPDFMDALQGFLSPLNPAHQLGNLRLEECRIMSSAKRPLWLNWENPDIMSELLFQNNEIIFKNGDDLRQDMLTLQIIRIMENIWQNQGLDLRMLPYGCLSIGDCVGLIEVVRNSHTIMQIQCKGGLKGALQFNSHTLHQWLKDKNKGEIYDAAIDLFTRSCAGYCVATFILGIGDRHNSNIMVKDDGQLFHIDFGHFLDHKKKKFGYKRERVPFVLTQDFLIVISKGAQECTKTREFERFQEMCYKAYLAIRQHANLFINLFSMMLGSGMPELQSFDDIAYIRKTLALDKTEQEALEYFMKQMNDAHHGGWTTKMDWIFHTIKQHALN
SMILES,Ki,PI3KA_Act Ki
"C[C@]1(N2CCc3c(-c4cnc(N)nc4)nc(N4CCOCC4)nc32)CCN(C2CCNC2=O)C1 (stereo partly drawn) [Example 6, (3S)-3-[4-(2-aminopyrimidin-5-yl)-2-(morpholin-4-yl)-5,6-dihydro-7H-pyrrolo[2,3-d]pyrimidin-7-yl]-3-methyl-1,3′-bipyrrolidin-2′-one]",0.096 nM,–
"CC1(C)CN=C(N2CC[C@](C)(N3CCc4c(-c5cnc(N)nc5)nc(N5CCOCC5)nc43)C2)O1 [Example 8, 5-{7-[(3S)-1-(5,5-dimethyl-4,5-dihydro-1,3-oxazol-2-yl)-3-methylpyrrolidin-3-yl]-2-(morpholin-4-yl)-6,7-dihydro-5H-pyrrolo[2,3-d]pyrimidin-4-yl}pyrimidin-2-amine]",–,0.019 nM
"CC1(C)COC(N2CC[C@](C)(N3CCc4c(-c5cnc(N)nc5)nc(N5CCOCC5)nc43)C2)=N1 [Example 9, 5-{7-[(3S)-1-(4,4-dimethyl-4,5-dihydro-1,3-oxazol-2-yl)-3-methylpyrrolidin-3-yl]-2-(morpholin-4-yl)-6,7-dihydro-5H-pyrrolo[2,3-d]pyrimidin-4-yl}pyrimidin-2-amine]",–,<0.018 nM
"[2H]C1([2H])OC([2H])([2H])C([2H])([2H])N(c2nc(-c3cnc(N)nc3)c3c(n2)N([C@@]2(C)CCN(C(=O)C(C)(C)N)C2)CC3)C1([2H])[2H] [Example 10, (S)-2-amino-1-(3-(4-(2-aminopyrimidin-5-yl)-2-morpholino-d8)-5,6-dihydro-7H-pyrrolo[2,3-d]pyrimidin-7-yl)-3-methylpyrrolidin-1-yl)-2-methylpropan-1-one hydrochloride]",< 0.018 nM,–
C[C@H]1COCCN1c1nc(-c2cnc(N)nc2)c2c(n1)N([C@H]1CCN(C(=O)NC(C)(C)C)C1)CC2 [Example 140],–,0.318 nM
C[C@H]1COCCN1c1nc(-c2cnc(N)nc2)c2c(n1)N(C1CN(C(=O)OC(C)(C)C)C1)CC2 [Example 141],–,0.471 nM
CNC(=O)COC(=O)N1CC(N2CCc3c(-c4cnc(N)nc4)nc(N4CCOCC4)nc32)C1 [Example 142],–,0.159 nM
CNC(=O)COC(=O)N1CC(N2CCc3c(-c4cnc(N)nc4)nc(N4CCOC[C@@H]4C)nc32)C1 [Example 143],–,0.262 nM
CNS(=O)(=O)N1CC[C@H](N2CCc3c(-c4cnc(N)nc4)nc(N4CCOC[C@H]4C)nc32)C1 [Example 144],–,3.251 nM
C[C@@H]1COCCN1c1nc(-c2cnc(N)nc2)c2c(n1)N([C@H]1CCN(S(C)(=O)=O)C1)CC2 [Example 145],–,4.011 nM
CNS(=O)(=O)N1CC(N2CCc3c(-c4cnc(N)nc4)nc(N4CCOCC4)nc32)C1 [Example 147],–,0.064 nM
CNS(=O)(=O)NCCOC(=O)N1CC(N2CCc3c(-c4cnc(N)nc4)nc(N4CCOCC4)nc32)C1 [Example 148],–,0.094 nM
C[C@]1(N2CCc3c(-c4cnc(N)nc4)nc(N4CCOCC4)nc32)CCN(S(C)(=O)=O)C1 [Example 149],–,0.027 nM
C[C@@]1(N2CCc3c(-c4cnc(N)nc4)nc(N4CCOCC4)nc32)CCN(S(C)(=O)=O)C1 [Example 150],–,0.044 nM
CN(C)C(=O)COC(=O)N1CC(N2CCc3c(-c4cnc(N)nc4)nc(N4CCOCC4)nc32)C1 [Example 151],–,0.107 nM
C[C@H]1COCCN1c1nc(-c2cnc(N)nc2)c2c(n1)N(C1CN(C(=O)OCC(=O)N(C)C)C1)CC2 [Example 152],–,0.103 nM
COCCCS(=O)(=O)N1CC(N2CCc3c(-c4cnc(N)nc4)nc(N4CCOC[C@@H]4C)nc32)C1 [Example 153],–,0.105 nM
C[C@H]1COCCN1c1nc(-c2cnc(N)nc2)c2c(n1)N(C1CN(S(=O)(=O)c3cn(C)cn3)C1)CC2 [Example 154],–,0.286 nM
COCCS(=O)(=O)N1CC(N2CCc3c(-c4cnc(N)nc4)nc(N4CCOC[C@@H]4C)nc32)C1 [Example 155],–,0.116 nM
C[C@H]1COCCN1c1nc(-c2cnc(N)nc2)c2c(n1)N([C@H]1CCN(C(=O)OC3COC3)C1)CC2 [Example 156],–,0.088 nM
C[C@H]1COCCN1c1nc(-c2cnc(N)nc2)c2c(n1)N(C(C)(C)C)CC2 [Example 157],–,0.173 nM

SMILES,Ki,PI3KA_Act Ki
Nc1ncc(-c2nc(N3CCOCC3)nc3c2CCN3C23CC(C2)C3)cn1 [Example 158],–,0.200 nM
C[C@H]1COCCN1c1nc(-c2cnc(N)nc2)c2c(n1)N(C1CN(S(=O)(=O)CC3CC3)C1)CC2 [Example 159],–,0.097 nM
C[C@H]1COCCN1c1nc(-c2cnc(N)nc2)c2c(n1)N(C1CN(S(=O)(=O)c3cnn(C)c3)C1)CC2 [Example 160],–,0.221 nM
COCCCS(=O)(=O)N1CC(N2CCc3c(-c4cnc(N)nc4)nc(N4CCOCC4)nc32)C1 [Example 161],–,0.202 nM
C[C@H]1COCCN1c1nc(-c2cnc(N)nc2)c2c(n1)N(C1CN(S(=O)(=O)C(F)(F)F)C1)CC2 [Example 163],–,0.188 nM
C[C@H]1COCCN1c1nc(-c2cnc(N)nc2)c2c(n1)N(C1(C)CCN(S(C)(=O)=O)C1)CC2 (some centres unmarked) [Example 164],–,0.030 nM
COC(=O)C(C)(C)N1CCc2c(-c3cnc(N)nc3)nc(N3CCOCC3)nc21 [Example 165],–,0.449 nM
C[C@H]1COCCN1c1nc(-c2cnc(N)nc2)c2c(n1)N(C1CN(P(C)(C)=O)C1)CC2 [Example 166],–,0.280 nM
C[C@H](O)COC(=O)N1CC(N2CCc3c(-c4cnc(N)nc4)nc(N4CCOCC4)nc32)C1 [Example 167],–,0.230 nM
C[C@H]1COCCN1c1nc(-c2cnc(N)nc2)c2c(n1)N([C@H]1CCN(P(C)(C)=O)C1)CC2 [Example 168],–,0.297 nM
Nc1ncc(-c2nc(N3CCOCC3)nc3c2CCN3C2CN(S(=O)(=O)CC3CC3)C2)cn1 [Example 169],–,0.129 nM
COCCS(=O)(=O)N1CC(N2CCc3c(-c4cnc(N)nc4)nc(N4CCOCC4)nc32)C1 [Example 170],–,0.124 nM
Nc1ncc(-c2nc(N3CCOC[C@@H]3CO)nc3c2CCN3C2CC(F)(F)C2)cn1 [Example 171],–,2.745 nM
CNS(=O)(=O)N1CC[C@@](C)(N2CCc3c(-c4cnc(N)nc4)nc(N4CCOCC4)nc32)C1 [Example 172],–,0.029 nM
CNS(=O)(=O)N1CC[C@](C)(N2CCc3c(-c4cnc(N)nc4)nc(N4CCOCC4)nc32)C1 [Example 173],–,<0.018 nM
C[C@H]1COCCN1c1nc(-c2cnc(N)nc2)c2c(n1)N([C@]1(C)CCN(S(C)(=O)=O)C1)CC2 [Example 174],–,0.030 nM
C[C@H]1COCCN1c1nc(-c2cnc(N)nc2)c2c(n1)N([C@@]1(C)CCN(S(C)(=O)=O)C1)CC2 [Example 175],–,0.023 nM
CC(C)C(C)(C)N1CCc2c(-c3cnc(N)nc3)nc(N3CCOCC3)nc21 [Example 176],–,0.462 nM
C[C@H]1COCCN1c1nc(-c2cnc(N)nc2)c2c(n1)N([C@@H]1CCN(P(C)(C)=O)C1)CC2 [Example 177],–,0.615 nM
Cn1cc(S(=O)(=O)N2CC(N3CCc4c(-c5cnc(N)nc5)nc(N5CCOCC5)nc43)C2)cn1 [Example 178],–,0.125 nM
